Data as given in patent publication US12357697B2, “Pharmaceutical compositions comprising bupropion and cysteine” (AXSOME THERAPEUTICS, INC., priority 2022, dated 2025).
Structures can show the parent of a compound that is named as a salt. Where two headings read alike, the source gives them in different places.

What was measured:
[1] = not given; remark: listed apart in the source

Compound: COc1ccc2c(c1)[C@]13CCCC[C@@H]1[C@H](C2)N(C)CC3 [AD, dextromethorphan hydrobromide monohydrate]
- ASSAY (25° C./60% RH, 4 wks): 102.5
- TOTAL RS (25° C./60% RH, 4 wks): 0.25
- ASSAY (25° C./60% RH, 8 wks): 100.2
- TOTAL RS (25° C./60% RH, 8 wks): 0.20
- ASSAY (40° C./75% RH, 4 wks): 101.5
- TOTAL RS (40° C./75% RH, 4 wks): 0.18
- ASSAY (40° C./75% RH, 8 wks): 100.1
- TOTAL RS (40° C./75% RH, 8 wks): 0.72
- ASSAY (T = 0 (initial)): 101.4
- TOTAL RS (T = 0 (initial)): 0.21

Compound: CC(NC(C)(C)C)C(=O)c1cccc(Cl)c1 (stereo not shown) [AB, bupropion hydrochloride]
- stability / compatibility of bupropion hydrochloride (in words) ([1]; 8 weeks): stable for the entire 8 weeks
- ASSAY ([1]; 25° C./60% RH, 4 wks): 97.6
- TOTAL RS > LOQ ([1]; 25° C./60% RH, 4 wks): <LOQ
- ASSAY ([1]; 25° C./60% RH, 8 wks): 100.2
- TOTAL RS > LOQ ([1]; 25° C./60% RH, 8 wks): 0.13
- ASSAY ([1]; 40° C./75% RH, 2 wks): 100.4
- TOTAL RS > LOQ ([1]; 40° C./75% RH, 2 wks): 0.43
- ASSAY ([1]; 40° C./75% RH, 4 wks): 99.3
- TOTAL RS > LOQ ([1]; 40° C./75% RH, 4 wks): 0.94
- ASSAY ([1]; 40° C./75% RH, 8 wks): 101.3
- TOTAL RS > LOQ ([1]; 40° C./75% RH, 8 wks): 1.16
- ASSAY ([1]; 50° C./ambient, 2 wks): 100.6
- TOTAL RS > LOQ ([1]; 50° C./ambient, 2 wks): 0.14
- ASSAY ([1]; T = 0 (initial)): 100.4
- TOTAL RS > LOQ ([1]; T = 0 (initial)): <LOQ
